EPA's CvTdb concentration-time database
Values joined by “and” are separate entries in the source; they are usually repeats but may differ in a detail not shown here. Equal entries are not always repeated.

Key:
Experiment in all cases: concentration in plasma after dosing
[1] = system: Rat; conditions: 0.5 h; dosed: Formamide; 10 mg/kg; iv; Female; Harlan Sprague-Dawley
[2] = system: Rat; conditions: 3 h; dosed: Formamide; 10 mg/kg; iv; Male; F344
[3] = system: Rat; conditions: dosed: Formamide, 30 mg/kg, iv, Female, F344
[4] = system: Rat; conditions: dosed: Formamide, 10 mg/kg, iv, Female, F344
[5] = system: Rat; conditions: dosed: Formamide, 30 mg/kg, iv, Female, F344; remark: listed apart in the source
[6] = system: Rat; conditions: dosed: Formamide, 30 mg/kg, iv, Female, F344; remark: listed apart in the source
[7] = system: Rat; conditions: 2 h; dosed: Formamide; 10 mg/kg; iv; Male; F344
[8] = system: Rat; conditions: dosed: Formamide, 10 mg/kg, iv, Female, Harlan Sprague-Dawley
[9] = system: Rat; conditions: 5 h; dosed: Formamide; 10 mg/kg; iv; Male; F344
[10] = system: Rat; conditions: dosed: Formamide, 10 mg/kg, iv, Male, F344
[11] = system: Rat; conditions: 2 h; dosed: Formamide; 10 mg/kg; iv; Male; F344; remark: listed apart in the source
[12] = system: Rat; conditions: 2 h; dosed: Formamide; 10 mg/kg; iv; Male; F344; remark: listed apart in the source
[13] = system: Rat; conditions: dosed: Formamide, 10 mg/kg, iv, Male, F344; remark: listed apart in the source
[14] = system: Rat; conditions: dosed: Formamide, 10 mg/kg, iv, Male, F344; remark: listed apart in the source
[15] = system: Rat; conditions: dosed: Formamide, 10 mg/kg, iv, Male, F344; remark: listed apart in the source
[16] = system: Rat; conditions: 5 h; dosed: Formamide; 10 mg/kg; iv; Male; F344; remark: listed apart in the source
[17] = system: Rat; conditions: 0.5 h; dosed: Formamide; 10 mg/kg; iv; Male; F344
[18] = system: Rat; conditions: dosed: Formamide, 10 mg/kg, iv, Male, F344; remark: listed apart in the source
[19] = system: Rat; conditions: dosed: Formamide, 10 mg/kg, iv, Male, F344; remark: listed apart in the source
[20] = system: Rat; conditions: 2 h; dosed: Formamide; 10 mg/kg; iv; Male; F344; remark: listed apart in the source
[21] = system: Rat; conditions: dosed: Formamide, 10 mg/kg, iv, Female, Harlan Sprague-Dawley; remark: listed apart in the source
[22] = system: Rat; conditions: iv
[23] = system: Rat; conditions: 0.5 h; dosed: Formamide; 30 mg/kg; iv; Female; F344
[24] = system: Rat; conditions: dosed: Formamide, 10 mg/kg, iv, Male, F344; remark: listed apart in the source
[25] = system: Rat; conditions: dosed: Formamide, 10 mg/kg, iv, Male, F344; remark: listed apart in the source
[26] = system: Rat; conditions: 2 h; dosed: Formamide; 10 mg/kg; iv; Male; F344; remark: listed apart in the source
[27] = system: Rat; conditions: dosed: Formamide, 30 mg/kg, iv, Female, F344; remark: listed apart in the source
[28] = system: Rat; conditions: dosed: Formamide, 10 mg/kg, iv, Male, F344; remark: listed apart in the source
[29] = system: Rat; conditions: 0.5 h; dosed: Formamide; 10 mg/kg; iv; Male; F344; remark: listed apart in the source
[30] = system: Rat; conditions: dosed: Formamide, 10 mg/kg, iv, Male, F344; remark: listed apart in the source
[31] = system: Rat; conditions: dosed: Formamide, 10 mg/kg, iv, Male, F344; remark: listed apart in the source
[32] = system: Rat; conditions: dosed: Formamide, 10 mg/kg, iv, Male, F344; remark: listed apart in the source
[33] = system: Rat; conditions: dosed: Formamide, 10 mg/kg, iv, Female, F344; remark: listed apart in the source
[34] = system: Rat; conditions: dosed: Formamide, 10 mg/kg, iv, Male, F344; remark: listed apart in the source
[35] = system: Rat; conditions: dosed: Formamide, 10 mg/kg, iv, Male, F344; remark: listed apart in the source
[36] = system: Rat; conditions: dosed: Formamide, 30 mg/kg, iv, Female, F344; remark: listed apart in the source
[37] = system: Rat; conditions: dosed: Formamide, 10 mg/kg, iv, Male, F344; remark: listed apart in the source
[38] = system: Rat; conditions: dosed: Formamide, 30 mg/kg, iv, Female, F344; remark: listed apart in the source
[39] = system: Rat; conditions: dosed: Formamide, 10 mg/kg, iv, Male, F344; remark: listed apart in the source
[40] = system: Rat; conditions: dosed: Formamide, 30 mg/kg, iv, Female, F344; remark: listed apart in the source
[41] = system: Rat; conditions: dosed: Formamide, 10 mg/kg, iv, Male, F344; remark: listed apart in the source
[42] = system: Rat; conditions: 5 h; dosed: Formamide; 10 mg/kg; iv; Male; F344; remark: listed apart in the source
[43] = system: Rat; conditions: dosed: Formamide, 10 mg/kg, iv, Male, F344; remark: listed apart in the source
[44] = system: Rat; conditions: 0.5 h; dosed: Formamide; 10 mg/kg; iv; Female; Harlan Sprague-Dawley; remark: listed apart in the source
[45] = system: Rat; conditions: 5 h; dosed: Formamide; 10 mg/kg; iv; Male; F344; remark: listed apart in the source
[46] = system: Rat; conditions: dosed: Tamoxifen citrate, 0.3 mg/kg, iv, Female, Sprague-Dawley
[47] = system: Rat; conditions: dosed: Tamoxifen citrate, 0.3 mg/kg, iv, Female, Sprague-Dawley; remark: listed apart in the source
[48] = system: Rat; conditions: dosed: Tamoxifen citrate, 0.3 mg/kg, iv, Male, Sprague-Dawley
[49] = system: Rat; conditions: dosed: Tamoxifen citrate, 0.3 mg/kg, iv, Male, Sprague-Dawley; remark: listed apart in the source
[50] = system: Rat; conditions: dosed: Tamoxifen citrate, 0.3 mg/kg, iv, Male, Sprague-Dawley; remark: listed apart in the source
[51] = system: Rat; conditions: dosed: Tamoxifen citrate, 0.3 mg/kg, iv, Male, Sprague-Dawley; remark: listed apart in the source
[52] = system: Rat; conditions: dosed: Tamoxifen citrate, 0.3 mg/kg, iv, Female, Sprague-Dawley; remark: listed apart in the source
[53] = system: Rat; conditions: dosed: Tamoxifen citrate, 0.3 mg/kg, iv, Female, Sprague-Dawley; remark: listed apart in the source

NC=O [Formamide]
Conditions | concentration in plasma [ng/mL]
[1] | 13500
[2] | 12000
[7] | 14100
[9] | 10500
[11] | 13000
[12] | 12800
[16] | 13700
[17] | 13400
[20] | 12400
[23] | 39700
[26] | 12600
[29] | 11100
[42] | 13400
[44] | 11100
[45] | 9600

Conditions | concentration in plasma [ng/mL]
[3], 8 h | 27500
[3], 12 h | 22800
[4], 10 min | 12500
[4], 18 h | 3300
[5], 5 min | 39500
[5], 36 h | 3400
[6], 8 h | 26800
[6], 12 h | 22600
[8], 0.25 h | 14700
[8], 24 h | 2900
[10], 8 h | 9200
[10], 12 h | 6700
[13], 0.25 h | 6900
[13], 24 h | 2900
[14], 5 min | 11900
[14], 36 h | 2000
[15], 5 min | 13700
[15], 36 h | 3100
[18], 1 h | 13400
[18], 3 h | 11700
[19], 8 h | 5700
[19], 12 h | 6800
[21], 0.25 h | 13000
[21], 24 h | 2100
[24], 8 h | 7100
[24], 12 h | 5600
[25], 5 min | 11200
[25], 36 h | 1400
[27], 0.25 h | 17600
[27], 24 h | 7700
[28], 1 h | 14500
[28], 3 h | 12400
[30], 0.25 h | 13300
[30], 24 h | 3900
[31], 5 min | 2100
[31], 36 h | 2100
[32], 10 min | 10700
[32], 18 h | 2900
[33], 10 min | 8500
[33], 18 h | 2900
[34], 1 h | 13500
[34], 3 h | 13300
[35], 8 h | 8600
[35], 12 h | 5100
[36], 0.25 h | 16100
[36], 24 h | 10100
[37], 5 min | 12900
[37], 36 h | 2200
[38], 5 min | 43900
[38], 36 h | 2500
[39], 10 min | 15400
[39], 18 h | 4700
[40], 0.5 h | 44700
[40], 48 h | 1600
[41], 1 h | 12700
[41], 3 h | 12800
[43], 8 h | 8000
[43], 12 h | 6700

concentration in plasma [ng/mL], [22], dosed: Formamide
Conditions | Female | Male
0.25 h, 10 mg/kg, F344 | – | 7100
0.25 h, 10 mg/kg, Harlan Sprague-Dawley | 13600 | –
0.25 h, 30 mg/kg, F344 | 37100 | –
0.5 h, 10 mg/kg, F344 | – | 14100
0.5 h, 10 mg/kg, Harlan Sprague-Dawley | 9300 | –
0.5 h, 30 mg/kg, F344 | 28200 | –
1 h, 10 mg/kg, F344 | – | 14700
2 h, 10 mg/kg, F344 | – | 12500
3 h, 10 mg/kg, F344 | – | 13700
5 h, 10 mg/kg, F344 | – | 14200
5 h, 10 mg/kg, Harlan Sprague-Dawley | 13000 | –
5 min, 10 mg/kg, F344 | – | 11800
5 min, 30 mg/kg, F344 | 46500 | –
8 h, 10 mg/kg, F344 | – | 8200
8 h, 30 mg/kg, F344 | 25000 | –
10 min, 10 mg/kg, F344 | 3500 | 14200
12 h, 10 mg/kg, F344 | – | 6300
12 h, 30 mg/kg, F344 | 21400 | –
18 h, 10 mg/kg, F344 | 3400 | 4000
24 h, 10 mg/kg, F344 | – | 3800
24 h, 10 mg/kg, Harlan Sprague-Dawley | 2300 | –
24 h, 30 mg/kg, F344 | 7900 | –
36 h, 10 mg/kg, F344 | – | 2300
36 h, 30 mg/kg, F344 | 4300 | –
48 h, 30 mg/kg, F344 | 1200 | –

CC/C(=C(\c1ccccc1)c1ccc(OCCN(C)C)cc1)c1ccccc1 [Tamoxifen, free base]
concentration in plasma [ng/mL]
Conditions | [46] | [47] | [48] | [49] | [50] | [51] | [52] | [53]
0.25 h | – | 10.6 | 27.8 | 17.9 | – | 23.4 | 9.8 | 19.2
0.5 h | – | 11.7 | 21.3 | 14 | – | 17.5 | 7.72 | 16.9
1 h | 11.8 | 7.86 | 12.5 | 9.45 | 5.39 | 11.1 | 6.48 | 12.4
2 h | 6.28 | 6.98 | 7.97 | 5.39 | 5.6 | 6.63 | 6.85 | 8.82
4 h | 4.6 | 4.36 | 4.45 | 13 | 5.43 | 4.12 | 5.08 | 4.36
8 h | – | – | – | – | 4.84 | – | – | –

concentration in plasma, [22], dosed: Tamoxifen citrate, 0.3 mg/kg, Sprague-Dawley
Conditions | 0.25 h | 0.5 h | 1 h | 2 h | 4 h | 8 h
Female | 7.64 ng/mL and 17.2 ng/mL | 7.57 ng/mL and 13.4 ng/mL | 5.28 ng/mL | – | – | –
Male | 7.83 ng/mL | 8.42 ng/mL | 5.43 ng/mL | 4.66 ng/mL | 5.32 ng/mL | 5.19 ng/mL
